Reference: US9585854B2, “N-acetyl-L-cysteine for use in in vitro fertilization” (IASOMAI AB, priority 2012, dated 2017)
Where two headings read alike, the source gives them in different places. Where a SMILES comes first, the peptide text is derived from it. Bridges are numbered along the chain shown (N, C = ends). [ ]: non-standard residue; d: D form. Orn = NCCC[C@H](N)C(=O)O; Mpa = O=C(O)CCS

Assays:
[1] = test system: pregnancy rates after IVF-ET; details: cited from earlier work
[2] = test system: oxytocin antagonist; implantation after IVF; details: cited from earlier work
embryo implantation = embryo implantation in oxytocin-treated mice; format: in vivo; details: mice given oxytocin
Excerpt: Indeed, in mice, NAC was confirmed to support embryo implantation. In the animal model, embryo implantation rate was decreased when the mice were given oxytocin.
In mice, NAC was confirmed to support embryo implantation. In the animal model, embryo implantation rate was decreased when the mice were given oxytocin.

[3] = test system: RGD recognition sites on integrins; details: cited from earlier work
[4] = test system: Isolated uteri from virgin Wistar rats; experiment: isolated organ bath study of uterine contractions; parameters: species or system rat
Experimental: Animals were kept at 22° C., housed 3 per cage and fed ad libitum. Isolated uteri from virgin Wistar rats (200-280 g) in estrous, which was determined by examination of a daily vaginal smear, were used.
Protamine sulphate (PS) and NAC were dissolved in pure water.
All rats were sacrificed by cervical dislocation. The uterine horns were excised, carefully cleaned and mounted vertically in a 10 ml volume organ bath containing De Jalon's solution (NaCl 154 mM, KCl 5.6 mM, CaCl2×2H2O 0.41 mM, NaHCO 2 5.9 mM and glucose 2.8 mM), under 1 g tension, aerated with 95% oxygen and 5% carbon dioxide at 37° C. […] After 10 min increasing concentrations of PS were added until the total cessation of contractions was observed.
Myometrial tension was recorded isometrically with an organ bath and transducer.
Effects of treatments on uterine contractions were calculated as percentages for control, untreated and contracting conditions. Each data value is expressed as the mean±SEM. differences between groups were analyzed by two-way ANOVA. EC50 values were compared using one-way ANOVA

In the case of CC(=O)[C@H]1CC[C@H]2[C@@H]3CCC4=CC(=O)CC[C@]4(C)[C@H]3CC[C@]12C [Progesterone], the “effect on pregnancy rates” value [1] is given as “no benefit”.
For CCOc1ccc(C[C@H]2NC(=O)CCSSC[C@@H](C(=O)N3CCC[C@H]3C(=O)N[C@@H](CCCN)C(=O)NCC(N)=O)NC(=O)[C@H](CC(N)=O)NC(=O)[C@H]([C@@H](C)O)NC(=O)[C@H]([C@@H](C)CC)NC2=O)cc1 [atosiban] ([Mpa][dY](Et)ITNCP[Orn]G-NH2; disulfide 1-6), the “Implantation rates per embryo transferred” value ([2]; total i.v. dose 37.5 mg before and up to 2 h after embryo transfer, placebo 12.6%) is listed as 20.4%, the early miscarriages ([2]; total i.v. dose 37.5 mg, placebo 24.4%) is listed as 16.7% and the “clinical pregnancy rates per cycle” value ([2]; total i.v. dose 37.5 mg, placebo 28.9%) is listed as 46.7%.
In the case of CC[C@H](C)[C@@H]1NC(=O)[C@H](Cc2ccc(O)cc2)NC(=O)[C@@H](N)CSSC[C@@H](C(=O)N2CCC[C@H]2C(=O)N[C@@H](CC(C)C)C(=O)NCC(N)=O)NC(=O)[C@H](CC(N)=O)NC(=O)[C@H](CCC(N)=O)NC1=O [oxytocin], the embryo implantation rate (embryo implantation) was “decreased”.
For CN1C(C(=O)Nc2ccccn2)=C(O)c2ccccc2S1(=O)=O [piroxicam], the “effect on pregnancy rates” value [1] is listed as “positive effect”.
In the case of CC(NCCc1ccc(O)cc1)C(O)c1ccc(O)cc1 (stereo not drawn) [ritodrine], the “effect on pregnancy rates” value [1] is listed as “positive effect”.
For Arg-Gly-Asp (RGD) peptide [RGD peptide], the “rat blastocyst attachment to Ishikawa cells” value ([3]; either the blastocysts or the Ishikawa cells pre-incubated) is given as “significant reduction in blastocyst attachment” and the “rat blastocyst attachment to Ishikawa cells” value ([3]; pre-treatment of both blastocysts and Ishikawa cells) is given as “inhibited blastocyst attachment, but not completely”.
In the case of Protamine sulphate [PS], the “relaxation of uterine contractions” value ([4]; calcium ion-induced uterine contractions) was “dose-dependent relaxation”, the “relaxation of uterine contractions” value ([4]; spontaneously active uteri) was “dose-dependent relaxation” and the “EC50 for PS-treated uteri” value ([4]; spontaneously active vs calcium ion-induced uteri) was “lower in spontaneously active uteri than in calcium ion-induced uteri”.
